Experimental data taken from the supplement of paper PMC7394473.

Tests used:
Settings in all cases: 72 h
U2OS [1] = test: fractional viability (live cells / total cells); higher = less cell death
Procedure: (§1)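 U2OS::Nuc-mKate2 cells seeded in 96-well plates and treated with eight- to ten-point half-log or log dilutions of drug in the presence of 50 nM SYTOX Green. Live (mKate2+) and dead (SYTOX+) cells were counted by IncuCyte STACK live-cell microscopy at 72 h; biological triplicates. GR is the normalised growth-rate inhibition value (Hafner 2016; 1 = untreated growth, <0 = population shrinking). FV is live/(live+dead) cells, not normalised.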

U2OS [2] = test: normalized growth rate inhibition value (GR) relative to untreated cells (GR value (dimensionless, 1 = untreated growth)); higher = less growth inhibition
Procedure: as §1

U2OS [3] = test: GR50 (concentration giving GR = 0.5)
Procedure: (§2)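 U2OS cells treated with full dose titrations of drug; live and dead cells counted by STACK microscopy (mKate2 nuclei, SYTOX Green) at 72 h, biological triplicates. GR and FV dose responses were fitted with 4-parameter logistic models (GR lower bound -1). GRADE (0-100) is the rescaled angle of a linear fit of FV versus GR at doses with GR >= 0, giving the percentage of the response due to cell death.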

U2OS [4] = test: drug GRADE (percent of response due to cell death) (% (0-100)); higher = more death-driven response
Procedure: as §2

U2OS [5] = test: GRmin (fitted minimal GR value at highest effect) (GR value (dimensionless)); higher = less efficacious
Procedure: as §2

Compound	fractional viability (U2OS [1]; 0.00100578 µM)	fractional viability (U2OS [1]; 0.00317827 µM)	fractional viability (U2OS [1]; 0.0100433 µM)	fractional viability (U2OS [1]; 0.0317369 µM)	fractional viability (U2OS [1]; 0.100289 µM)	fractional viability (U2OS [1]; 0.316912 µM)	fractional viability (U2OS [1]; 1.00144 µM)	fractional viability (U2OS [1]; 3.16456 µM)	fractional viability (U2OS [1]; 10 µM)	normalized growth rate inhibition value (U2OS [2]; 0.00100578 µM)	normalized growth rate inhibition value (U2OS [2]; 0.00317827 µM)	normalized growth rate inhibition value (U2OS [2]; 0.0100433 µM)	normalized growth rate inhibition value (U2OS [2]; 0.0317369 µM)	normalized growth rate inhibition value (U2OS [2]; 0.100289 µM)	normalized growth rate inhibition value (U2OS [2]; 0.316912 µM)	normalized growth rate inhibition value (U2OS [2]; 1.00144 µM)	normalized growth rate inhibition value (U2OS [2]; 3.16456 µM)	normalized growth rate inhibition value (U2OS [2]; 10 µM)	GR50 (U2OS [3]) [µM]	fractional viability (U2OS [1]; 0.01 µM)	fractional viability (U2OS [1]; 0.0316 µM)	fractional viability (U2OS [1]; 0.1 µM)	fractional viability (U2OS [1]; 0.316 µM)	fractional viability (U2OS [1]; 1 µM)	fractional viability (U2OS [1]; 3.16 µM)	fractional viability (U2OS [1]; 31.6 µM)	drug GRADE (U2OS [4])	GRmin (U2OS [5])	normalized growth rate inhibition value (U2OS [2]; 0.01 µM)	normalized growth rate inhibition value (U2OS [2]; 0.0316 µM)	normalized growth rate inhibition value (U2OS [2]; 0.1 µM)	normalized growth rate inhibition value (U2OS [2]; 0.316 µM)	normalized growth rate inhibition value (U2OS [2]; 1 µM)	normalized growth rate inhibition value (U2OS [2]; 3.16 µM)	normalized growth rate inhibition value (U2OS [2]; 31.6 µM)
CCc1cncnc1N1CCN(Cc2nc3ccc(C(F)(F)F)cc3[nH]2)CC1	0.988	0.988	0.988	0.988	0.988	0.986	0.992	0.989	0.98	1.06	0.948	1.04	1.02	0.896	1	0.842	0.943	0.734	–	–	–	–	–	–	–	–	–	–	–	–	–	–	–	–	–
Cc1nn(C)c(COc2ccc(N3CCN(S(=O)(=O)N(C)C)CC3)cc2)c1-c1cccc2c(CCCOc3cccc4ccccc34)c(C(=O)O)n(CCN3CCOCC3)c12	0.991	0.989	0.987	0.991	0.99	0.987	0.978	0.96	0.852	0.982	0.925	0.967	0.917	0.934	0.942	0.899	0.919	0.718	–	–	–	–	–	–	–	–	–	–	–	–	–	–	–	–	–
COC1CCN(C(=O)c2cc(Cc3n[nH]c(=O)c4ccccc34)ccc2F)CC1 [AZD2461]	–	–	–	–	–	–	–	–	0.959	–	–	–	–	–	–	–	–	0.682	21.7	0.974	0.973	0.978	0.975	0.972	0.97	0.919	13.6	0.0439	1.01	0.882	0.946	0.923	0.93	0.849	0.407
Cc1nc(NC(=O)N2CCC[C@H]2C(N)=O)sc1-c1ccnc(C(C)(C)C(F)(F)F)c1 [Alpelisib]	0.986	0.987	0.987	0.985	0.982	0.98	0.971	0.965	0.938	0.96	0.922	0.922	0.903	0.836	0.752	0.794	0.79	0.693	–	–	–	–	–	–	–	–	9	0.695	–	–	–	–	–	–	–
C[C@H]1[C@H](OC(=O)CCC(=O)O)O[C@@H]2O[C@@]3(C)CC[C@H]4[C@H](C)CC[C@@H]1[C@@]24OO3 [Artesunate]	–	–	–	–	–	–	–	–	0.941	–	–	–	–	–	–	–	–	0.63	14.7	0.98	0.974	0.976	0.972	0.977	0.971	0.779	35.4	–	1.02	0.827	0.944	0.928	0.89	0.814	0.178
CNC(=O)c1ccccc1Sc1ccc2c(/C=C/c3ccccn3)n[nH]c2c1 [Axitinib]	–	–	–	–	–	–	–	–	0.949	–	–	–	–	–	–	–	–	0.733	–	0.977	0.978	0.97	0.972	0.956	0.788	0.91	32.1	0.534	0.956	0.956	0.887	0.994	0.822	0.223	0.643
Cc1c(N)nc([C@H](CC(N)=O)NC[C@H](N)C(N)=O)nc1C(=O)N[C@H](C(=O)N[C@H](C)[C@@H](O)[C@H](C)C(=O)N[C@H](C(=O)NCCc1nc(-c2nc(C(=O)NCCC[S+](C)C)cs2)cs1)[C@@H](C)O)[C@@H](OC1OC(CO)C(O)C(O)C1OC1OC(CO)C(O)C(OC(N)=O)C1O)c1cnc[nH]1 (stereo not given in full) [Bleomycin]	0.989	0.989	0.99	0.991	0.987	0.982	0.972	0.968	0.947	1.12	0.986	1.11	1.03	0.88	0.888	0.552	0.195	0.0892	1.15	–	–	–	–	–	–	–	6.06	0.0459	–	–	–	–	–	–	–
COc1cc2nccc(Oc3ccc(NC(=O)C4(C(=O)Nc5ccc(F)cc5)CC4)cc3)c2cc1OC [Cabozantinib]	0.984	0.986	0.985	0.981	0.979	0.977	0.968	0.917	0.647	1.02	0.963	1.03	1.07	0.938	0.954	0.843	0.443	-0.338	2.79	–	–	–	–	–	–	–	9.76	–	–	–	–	–	–	–	–
COc1cc2c(Oc3ccc4[nH]c(C)cc4c3F)ncnc2cc1OCCCN1CCCC1 [Cediranib]	0.987	0.986	0.986	0.988	0.986	0.987	0.974	0.966	0.686	0.951	1.04	1.11	1.04	0.987	1.07	0.861	0.837	0.308	7.19	–	–	–	–	–	–	–	55.1	–	–	–	–	–	–	–	–
O=C(O)CCCc1ccc(N(CCCl)CCCl)cc1 [Chlorambucil]	–	–	–	–	–	–	–	–	0.976	–	–	–	–	–	–	–	–	0.925	–	0.983	0.974	0.978	0.978	0.979	0.976	0.967	–	0.695	1.08	0.879	1.13	0.991	0.93	0.936	0.838
N.N.[Cl][Pt][Cl] [Cisplatin]	0.99	0.989	0.988	0.99	0.988	0.986	0.984	0.957	0.884	0.959	0.955	1.02	0.95	0.901	0.972	0.755	0.248	0.0495	1.8	–	–	–	–	–	–	–	11.1	0.0264	–	–	–	–	–	–	–
CN(C)/N=N/c1[nH]cnc1C(N)=O [Dacarbazine]	–	–	–	–	–	–	–	–	0.942	–	–	–	–	–	–	–	–	0.837	–	0.975	0.984	0.974	0.978	0.975	0.964	0.926	–	0.749	1.08	1.01	0.899	0.939	0.934	0.821	0.769
Cc1nc(Nc2ncc(C(=O)Nc3c(C)cccc3Cl)s2)cc(N2CCN(CCO)CC2)n1 [Dasatinib]	0.99	0.988	0.979	0.974	0.976	0.97	0.963	0.913	0.635	0.806	0.867	0.998	0.833	0.762	0.799	0.605	0.35	-0.105	1.68	–	–	–	–	–	–	–	26.7	–	–	–	–	–	–	–	–
CCOc1ccccc1-n1c(C(C)N2CCN(C(=O)COc3ccc(Cl)cc3)CC2)nc2ccccc2c1=O (stereo not given) [Erastin]	–	–	–	–	–	–	–	–	0.647	–	–	–	–	–	–	–	–	0.22	4.14	0.977	0.982	0.983	0.976	0.961	0.945	0.531	44.7	-0.351	0.987	1	0.973	0.878	0.826	0.586	-0.0643
C#Cc1cccc(Nc2ncnc3cc(OCCOC)c(OCCOC)cc23)c1 [Erlotinib]	–	–	–	–	–	–	–	–	0.913	–	–	–	–	–	–	–	–	0.636	–	0.973	0.976	0.977	0.967	0.96	0.96	0.697	62.1	0.542	0.935	0.993	1.03	0.986	1.06	0.928	0.545
COc1cc([C@@H]2c3cc4c(cc3[C@@H](O[C@@H]3O[C@@H]5CO[C@@H](C)O[C@H]5[C@H](O)[C@H]3O)[C@H]3COC(=O)[C@H]23)OCO4)cc(OC)c1O [Etoposide]	0.99	0.988	0.993	0.989	0.975	0.952	0.96	0.922	0.628	0.934	1.02	0.895	0.785	0.524	0.11	-0.0401	-0.0127	-0.155	0.0978	–	–	–	–	–	–	–	8.6	-0.106	–	–	–	–	–	–	–
CO[C@H]1C[C@@H]2CC[C@@H](C)[C@@](O)(O2)C(=O)C(=O)N2CCCC[C@H]2C(=O)O[C@H]([C@H](C)C[C@@H]2CC[C@@H](OCCO)[C@H](OC)C2)CC(=O)[C@H](C)/C=C(\C)[C@@H](O)[C@@H](OC)C(=O)[C@H](C)C[C@H](C)/C=C/C=C/C=C/1C [Everolimus]	0.994	0.992	0.991	0.994	0.993	0.994	0.989	0.99	0.984	0.653	0.758	0.721	0.653	0.738	0.79	0.598	0.524	0.515	–	–	–	–	–	–	–	–	0.964	-0.334	–	–	–	–	–	–	–
